Results as given in patent publication US7612200B2, “Inhibitors of protein kinases” (Locus Pharmaceuticals, Inc., priority 2004, dated 2009).

Legend:
Format in all cases: biochemical
[1] = target: c-RAF (Homo sapiens, UniProt P04049); experiment: c-RAF Kinase Activity
Method: c-RAF Kinase Activity: In a final reaction volume of 25 μl, c-RAF (h) (5-10 mU) is incubated with 25 mM Tris pH 7.5, 0.02 mM EGTA, 0.66 mg/ml myelin basic protein, 10 mM MgAcetate, and [γ-^33P-ATP] (specific activity approx. 500 cpm/pmol, concentration as required). The reaction is initiated by the addition of the MgATP mix. After incubation for 40 minutes at room temperature, the reaction is stopped by the addition of 5 μl of a 3% phosphoric acid solution. 10 μl of the reaction is then spotted onto a P30 filtermat and washed three times for 5 minutes in 75 mM phosphoric acid and once in methanol prior to drying and scintillation counting.

[2] = target: Flt1 (Homo sapiens, UniProt P17948); experiment: Protein kinase inhibition, Flt1; settings: Rate (μM) 2, read-out: % Control
Sequence of Flt1 (P17948 27-1338): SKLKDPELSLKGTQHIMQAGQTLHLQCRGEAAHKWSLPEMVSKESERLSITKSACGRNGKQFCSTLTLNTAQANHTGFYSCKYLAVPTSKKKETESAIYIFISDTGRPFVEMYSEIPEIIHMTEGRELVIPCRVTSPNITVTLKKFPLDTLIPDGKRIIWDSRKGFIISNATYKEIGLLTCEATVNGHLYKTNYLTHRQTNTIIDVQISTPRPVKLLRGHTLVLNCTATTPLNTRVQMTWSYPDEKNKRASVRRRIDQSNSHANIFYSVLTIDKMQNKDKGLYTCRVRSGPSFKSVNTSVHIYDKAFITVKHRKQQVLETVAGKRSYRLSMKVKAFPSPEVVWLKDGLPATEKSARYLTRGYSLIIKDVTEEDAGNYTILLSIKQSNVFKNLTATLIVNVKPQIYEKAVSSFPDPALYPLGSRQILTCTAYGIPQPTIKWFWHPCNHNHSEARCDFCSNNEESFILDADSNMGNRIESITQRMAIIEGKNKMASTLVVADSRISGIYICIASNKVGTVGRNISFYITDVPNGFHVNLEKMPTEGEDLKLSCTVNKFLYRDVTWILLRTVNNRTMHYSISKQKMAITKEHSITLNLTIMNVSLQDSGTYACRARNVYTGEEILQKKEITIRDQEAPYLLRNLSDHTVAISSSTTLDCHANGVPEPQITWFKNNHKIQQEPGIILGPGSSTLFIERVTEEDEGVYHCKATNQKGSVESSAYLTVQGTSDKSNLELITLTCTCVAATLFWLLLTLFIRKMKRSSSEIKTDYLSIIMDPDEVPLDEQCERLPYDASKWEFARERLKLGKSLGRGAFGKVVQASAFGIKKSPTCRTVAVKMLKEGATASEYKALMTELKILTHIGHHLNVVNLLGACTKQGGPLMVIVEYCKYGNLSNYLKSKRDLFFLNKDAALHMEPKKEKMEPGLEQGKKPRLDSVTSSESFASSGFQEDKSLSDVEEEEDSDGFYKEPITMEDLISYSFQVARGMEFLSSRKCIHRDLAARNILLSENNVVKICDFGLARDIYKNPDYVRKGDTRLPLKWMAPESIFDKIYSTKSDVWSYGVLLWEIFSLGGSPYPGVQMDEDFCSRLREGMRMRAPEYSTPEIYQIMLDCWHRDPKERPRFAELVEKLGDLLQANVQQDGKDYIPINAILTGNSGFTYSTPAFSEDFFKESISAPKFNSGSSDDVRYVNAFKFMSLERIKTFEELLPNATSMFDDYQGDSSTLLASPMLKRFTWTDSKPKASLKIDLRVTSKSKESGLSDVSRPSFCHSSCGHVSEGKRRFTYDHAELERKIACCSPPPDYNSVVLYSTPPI

[3] = target: p38γ (Homo sapiens, UniProt P53778); experiment: SAPK3 Kinase Activity (p38γ)
Sequence of p38γ (P53778 whole entry): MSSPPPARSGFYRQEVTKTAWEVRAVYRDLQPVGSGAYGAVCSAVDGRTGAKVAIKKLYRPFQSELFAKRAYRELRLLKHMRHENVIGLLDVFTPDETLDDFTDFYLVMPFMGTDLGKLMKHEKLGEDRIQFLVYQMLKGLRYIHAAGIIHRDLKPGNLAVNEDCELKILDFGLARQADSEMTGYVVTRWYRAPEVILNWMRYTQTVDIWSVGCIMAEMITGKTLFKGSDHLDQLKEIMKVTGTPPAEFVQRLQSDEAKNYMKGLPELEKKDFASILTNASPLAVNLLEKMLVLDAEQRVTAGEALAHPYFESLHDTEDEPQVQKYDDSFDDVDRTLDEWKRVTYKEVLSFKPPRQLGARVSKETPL
Method: (§1) SAPK3 Kinase Activity: In a final reaction volume of 25 μl, SAPK3 (h) (5-10 mU) is incubated with 25 mM Tris pH 7.5, 0.02 mM EGTA, 0.33 mg/ml myelin basic protein, 10 mM MgAcetate and [γ-^33P-ATP] (specific activity approx. 500 cpm/®mol, concentration as required). The reaction is initiated by the addition of the MgATP mix. After incubation for 40 minutes at room temperature, the reaction is stopped by the addition of 5 μL of a 3% phosphoric acid solution. 10 μL of the reaction is the spotted onto a P30 filtermat and washed three times for 5 minutes in 75 mM phosphoric acid and once in methanol prior to drying and scintillation counting.

[4] = target: Tie2 (Homo sapiens, UniProt Q02763); experiment: Tie2 Kinase Activity
Sequence of Tie2 (Q02763 23-1124): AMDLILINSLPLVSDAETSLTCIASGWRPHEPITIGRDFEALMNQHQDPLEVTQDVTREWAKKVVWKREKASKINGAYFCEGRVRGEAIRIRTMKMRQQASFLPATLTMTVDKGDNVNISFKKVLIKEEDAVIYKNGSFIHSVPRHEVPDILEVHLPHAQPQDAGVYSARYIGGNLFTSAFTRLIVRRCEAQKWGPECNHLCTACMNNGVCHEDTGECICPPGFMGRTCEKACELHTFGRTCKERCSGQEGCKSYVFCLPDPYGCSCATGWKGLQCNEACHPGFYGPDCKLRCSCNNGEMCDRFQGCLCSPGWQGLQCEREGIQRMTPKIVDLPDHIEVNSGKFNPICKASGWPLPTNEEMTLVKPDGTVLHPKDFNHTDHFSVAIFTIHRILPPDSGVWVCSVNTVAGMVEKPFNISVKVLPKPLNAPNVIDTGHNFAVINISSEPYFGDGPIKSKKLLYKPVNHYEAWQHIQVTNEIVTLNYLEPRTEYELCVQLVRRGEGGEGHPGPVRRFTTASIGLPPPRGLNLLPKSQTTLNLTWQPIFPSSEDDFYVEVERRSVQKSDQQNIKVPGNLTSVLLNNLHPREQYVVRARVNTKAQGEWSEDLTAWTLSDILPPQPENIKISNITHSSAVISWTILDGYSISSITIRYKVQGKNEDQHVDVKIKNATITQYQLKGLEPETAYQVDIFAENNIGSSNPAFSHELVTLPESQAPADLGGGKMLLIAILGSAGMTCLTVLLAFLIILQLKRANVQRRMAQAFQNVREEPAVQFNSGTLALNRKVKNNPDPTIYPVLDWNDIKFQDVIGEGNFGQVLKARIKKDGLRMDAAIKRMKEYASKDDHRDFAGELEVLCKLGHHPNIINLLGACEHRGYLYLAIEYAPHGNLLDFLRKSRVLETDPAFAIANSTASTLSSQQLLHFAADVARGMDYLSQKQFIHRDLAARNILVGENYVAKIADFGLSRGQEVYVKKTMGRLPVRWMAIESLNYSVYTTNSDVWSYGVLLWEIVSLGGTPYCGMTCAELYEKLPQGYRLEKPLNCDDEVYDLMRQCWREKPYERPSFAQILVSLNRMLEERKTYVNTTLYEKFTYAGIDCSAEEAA
Method: Tie2 Kinase Activity: In a final reaction volume of 25 μl, Tie2 (h) (5-10 mU) is incubated with 8 mM MOPS pH 7.0, 0.2 mM EDTA, 0.5 mM MnCl2, 0.1 mg/ml poly(Glu, Tyr) 4:1, 10 mM MgAcetate and [γ-^33P-ATP] (specific activity approx. 500 cpm/pmol, concentration as required). The reaction is initiated by the addition of the MgATP mix. After incubation for 40 minutes at room temperature, the reaction is stopped by the addition of 5 μl of a 3% phosphoric acid solution. 10 μl of the reaction is then spotted onto a Filtermat A and washed three times for 5 minutes in 75 mM phosphoric acid and once in methanol prior to drying and scintillation counting.

[5] = target: p38δ (Homo sapiens, UniProt O15264); experiment: SAPK4 Kinase Activity (p38δ)
Sequence of p38δ (O15264 whole entry): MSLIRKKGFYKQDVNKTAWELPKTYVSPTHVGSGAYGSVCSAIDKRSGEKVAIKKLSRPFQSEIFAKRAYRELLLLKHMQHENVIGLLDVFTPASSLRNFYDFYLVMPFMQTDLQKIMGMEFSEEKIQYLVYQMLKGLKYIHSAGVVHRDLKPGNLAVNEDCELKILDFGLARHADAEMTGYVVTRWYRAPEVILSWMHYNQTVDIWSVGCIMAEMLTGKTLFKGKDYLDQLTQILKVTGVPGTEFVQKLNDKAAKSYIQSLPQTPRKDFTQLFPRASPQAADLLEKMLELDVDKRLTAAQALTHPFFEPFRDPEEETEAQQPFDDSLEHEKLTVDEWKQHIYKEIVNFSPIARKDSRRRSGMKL
Method: as §1, with “SAPK4 Kinase” for “SAPK3 Kinase”, “μl, SAPK4” for “μl, SAPK3”, “500 cpm/pmol,” for “500 cpm/®mol,”, “5 μl” for “5 μL”

Sequence of c-RAF (P04049 whole entry): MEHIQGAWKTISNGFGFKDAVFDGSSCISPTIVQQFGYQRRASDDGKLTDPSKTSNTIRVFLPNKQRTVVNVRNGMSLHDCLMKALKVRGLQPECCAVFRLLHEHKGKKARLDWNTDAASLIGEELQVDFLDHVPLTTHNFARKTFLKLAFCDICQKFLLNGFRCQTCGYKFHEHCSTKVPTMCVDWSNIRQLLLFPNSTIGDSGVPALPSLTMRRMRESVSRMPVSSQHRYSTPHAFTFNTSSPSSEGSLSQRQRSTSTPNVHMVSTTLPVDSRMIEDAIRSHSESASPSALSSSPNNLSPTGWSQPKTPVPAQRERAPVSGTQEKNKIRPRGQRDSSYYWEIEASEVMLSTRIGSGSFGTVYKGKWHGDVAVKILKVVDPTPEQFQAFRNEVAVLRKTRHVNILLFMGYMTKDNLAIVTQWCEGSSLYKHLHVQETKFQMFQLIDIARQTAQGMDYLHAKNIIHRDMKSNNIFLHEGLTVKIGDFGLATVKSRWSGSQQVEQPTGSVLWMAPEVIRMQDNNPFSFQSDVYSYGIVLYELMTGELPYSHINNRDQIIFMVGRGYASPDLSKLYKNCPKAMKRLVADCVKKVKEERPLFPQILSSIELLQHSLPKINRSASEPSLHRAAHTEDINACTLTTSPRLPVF

In the case of `CC(C)(C)c1cc(C(=O)N2CCS(=O)(=O)CC2)c(NC(=O)Nc2ccc(Oc3ccncc3)cc2)s1` [Example 3, 1-[5-tert-Butyl-3-(1,1-dioxo-1λ^6-thiomorpholine-4-carbonyl)thiophen-2-yl]-3-[4-(pyridin-4-yloxy)phenyl]urea], the remaining activity at 2 µM ([1]; 40 min, cRaf, Human, Rate (μM) 2, read-out: % Control) is reported as 76 to 100%, the “% Inhibition at 2 μm” value ([1]; c-RAF, compound at 2 μm) is reported as 76-100% and the remaining activity at 2 µM [2] is reported as 76 to 100%. For the same molecule, the remaining activity at 2 µM ([3]; 40 min, P38g, Human, Rate (μM) 2, read-out: % Control) was 76 to 100%, the “% Inhibition at 2 μm” value ([3]; p38γ, compound at 2 μm) was 76-100% and the remaining activity at 2 µM ([4]; 40 min, Tie2, Human, Rate (μM) 2, read-out: % Control) was 76 to 100%. For the same molecule, the “% Inhibition at 2 μm” value ([4]; Tie2, compound at 2 μm) was 76-100%, the remaining activity at 2 µM ([5]; 40 min, P38d, Human, Rate (μM) 2, read-out: % Control) was 76 to 100% and the “% Inhibition at 2 μm” value ([5]; p38δ, compound at 2 μm) was 76-100%.
